This experiment relates to clinical strains of Mycobacterium tuberculosis. Description: Reference phenotypic test of antibiotic sensitivity in solid medium. The class given is cell-based. The settings on record: Mycobacterium tuberculosis, read-out: minimum inhibitory concentration.

Bounds are passed on as bounds.

On to `CO[C@H]1/C=C/O[C@@]2(C)Oc3c(C)c(O)c4c(O)c(c(/C=N/N5CCN(C)CC5)c(O)c4c3C2=O)NC(=O)/C(C)=C\C=C\[C@H](C)[C@H](O)[C@@H](C)[C@@H](O)[C@@H](C)[C@H](OC(C)=O)[C@@H]1C` [rifampicin], for which the MIC was over 1 µg/mL.

Source of the values: patent US8841087B2 (priority 2008, dated 2014).
